Laboratory results reported in paper PMC5847048 (Psychopharmacology, 2017).

Experiments:
[1] = system: middle-aged mice; design: method as in Giralt et al. [2017]; conditions: ref Giralt et al. [2017]; cited from earlier work
[2] = system: middle-aged mice (14–15 months old); assay: Contextual serial discrimination (CSD) task; type: in vivo, mouse; conditions: for Strength of contextual memory (SCM) score, first discrimination D1: Experiment 1 study A, middle-aged mice, vehicle − 21.66%; for SCM score (LSMeans ± SE LSMeans): Experiment 2, 9 days, D1
Experimental: Treatments were administered per os daily for nine consecutive days for studies involving the CSD and SA tasks. The 8th and the 9th oral administrations were given 60 min before acquisition and test phases in the CSD task, or before the training and the test sessions in the SA task.
The studies were carried out on mice according to the procedure described in full by Celerier et al. ([2004]) and Tronche et al. ([2010]) (Fig.1). Briefly, the mouse learns two consecutive spatial discriminations (D1 and D2) in a four hole-board apparatus (45 × 45 × 30 cm) enclosed with gray Plexiglas walls. The floor of the hole-board was interchangeable (white and rough versus black and smooth). On the floor, four holes opening on a food cup (3-cm diameter × 2.5-cm depth) were located 6 cm away from the sidewalls. Photocells located into the holes allowed an automatic recording of the number of head-dips in each hole.
Fig. 1 a Contextual serial discrimination: at the acquisition phase, mice performed two consecutive spatial discrimination sessions varying by the color and texture of the floor, i.e., D1, discrimination 1, and D2, discrimination 2. For each discrimination session, only one out of the four holes of the apparatus was baited (hashed circles). […] One hour prior to acquisition and test phases, mice received a per os administration of the compounds or vehicle solution in a chamber placed in a room (room C) different from the one in which the behavioral experiments were conducted (room A). Subsequently, mice were submitted to the test phase in which they were repositioned on the floor of the first discrimination without any food pellet in the apparatus. b Two types of responses were calculated: (i) correct responses corresponding to head-dips into the hole baited at the acquisition of the first discrimination (D1), on the same floor context; (ii) interference responses corresponding to head-dips into the hole baited at the other (second) discrimination (D2). Both parameters allow calculation of the SCM score
Mice were partially food-deprived for 1 week prior to experimentation and were maintained on a 12 ± 2% loss of their body weight throughout behavioral testing to increase motivation for food reward. During the food deprivation phase, mice were handled daily to familiarize them with the experimenter.
During the acquisition session, mice were first placed at the center of the board in a plastic tube for 15 s and then learned two successive spatial discriminations (D1 and D2) for 6 min each and were each separated by a 2-min interval. Between two sessions, each mouse was placed in its home cage in an animal housing room. For D1, ten 20-mg pellets were available only in one of the four holes in the board. For D2, ten 20-mg pellets were located in the opposite symmetrical hole. The environmental spatial cues remained at the same place for D1 and D2. Within each group, the floors used for the first and second discrimination (D1 and D2) were counterbalanced at the acquisition phase from one mouse to the other. A minimal amount of eight pellets should be eaten per mouse at either D1 or D2 during the acquisition phase.
During memory testing, D1 and D2 discriminations were performed in independent groups of mice, being replaced either on the floor of D1 or of D2. The food-deprived mice were replaced either on the floor of D1 or on the floor of D2. In each case, mice were allowed to explore the apparatus freely and performance was assessed by measuring the exploration for each hole for 6 min without any pellets in the apparatus. During the procedure, photocells allowed measurement of the number of head dips in each hole. Different parameters were further calculated: % of correct responses (head-dips into the hole previously baited on the same floor context), % of interfering responses (head-dips into the hole previously baited on the other floor context), and % of errors (head-dips into the two holes never previously baited).

O=C1c2cc3nnn(CCc4cccc(F)c4)c(=O)c3cc2OCN1C1CC1 [S 47445]
In vivo CA3-CA1 long-term potentiation and structural synaptic changes [1]: rescues in vivo CA3-CA1 long-term potentiation and structural synaptic changes
Total number of explorations and % exploration of the baited hole, acquisition phase ([2]; Experiment 1 (study A and B), compounds alone, p> 0.10 in all analyses): No significant between-groups difference
Memory performance in the second discrimination (D2) ([2]; Experiment 1, S 47445 at all doses, donepezil at the active doses, versus middle-aged vehicle, data not shown): did not alter memory performance
Total number of head-dips, test phase ([2]; Experiment 1, versus vehicles (p > 0.10 in all comparisons), data not shown): no significant effect
Strength of contextual memory (SCM) score, first discrimination D1 ([2]; S 47445 0.1 mg/kg p.o. daily 9 days): 6.56%
Strength of contextual memory (SCM) score, first discrimination D1 ([2]; S 47445 0.3 mg/kg p.o. daily 9 days): 10.57%
SCM score (LSMeans ± SE LSMeans) ([2]; S 47445 0.1 mg/kg p.o. alone): 5.1515 ± 7.7919%
SCM score (LSMeans ± SE LSMeans) ([2]; S 47445 0.3 mg/kg p.o. alone): 11.7033 ± 7.7919%
Post hoc analysis of S 47445 effect on SCM score for all donepezil levels (Dunnett, versus vehicle group) ([2]; S 47445 0.03 mg/kg, all levels of donepezil pooled): + (+p ≤ 0.050)
SCM score of the second discrimination (D2), dose effect at pooled levels of the other drug ([2]; Supplemental data 2, S 47445 0.03–0.3 mg/kg p.o. (p=0.951), Donepezil 0.03 and 0.1 mg/kg (p=0.074)): no significant effect
